{
  "source": "patent US5079254A",
  "about": "“Derivatives of 6-aminooctahydroindolizinetriol” (Merrell Dow Pharmaceuticals Inc., priority 1990, dated 1992)",
  "key": {"[1]": {"molecular_target": "hexosaminidase from porcine placenta", "assay": "Inhibition of hexosaminidase activity, 4-nitrophenyl-N-acetyl-β-glucosaminide substrate, 96-well microplate (porcine placenta enzyme)", "assay_type": "biochemical", "conditions": "pH 4.5, 10 min preincubation at room temperature, substrate 30 min at 37° C., read at 405 nm", "protocol": "(§1) In a preliminary screen, test compounds are studied over a range of concentrations from 0.1 to 100 μg/ml. together with a control sample. Specifically, the test compound is added to individual wells and made up to a total volume of 100 μl. To each well is added 25 μl of 1M sodium citrate buffer pH 4.5 and 25 μl of enzyme (1 mμ) in 10 mM sodium citrate at pH 4.5. The material is mixed and incubated at room temperature for 10 minutes. Then 50 μl of 10 mM substrate (4-nitrophenyl-N-acetyl-8-glucosaminide, Sigma # N-91376) is added and the mixture is incubated at 37° C. for 30 minutes. The reaction is then killed by adding 100 μl of 2% sodium carbonate and the yellow color due to release of 4-nitrophenol is read at 405 nm in an Elisa reader. The results obtained in this preliminary screen are then examined and, if inhibition has taken place, the procedure is repeated using several concentrations over a narrower range to provide for a more precise determination of the IC50."}, "[2]": {"molecular_target": "hexosaminidase from human placenta", "assay": "Inhibition of hexosaminidase activity, 4-nitrophenyl-N-acetyl-β-glucosaminide substrate, 96-well microplate (human placenta enzyme)", "assay_type": "biochemical", "conditions": "pH 4.5, 10 min preincubation at room temperature, substrate 30 min at 37° C., read at 405 nm", "protocol": "as §1"}, "[3]": {"test_system": "Lewis lung tumor cell", "conditions": "female mice implanted with Lewis lung tumor cell; Bernacki, page 93; cited from earlier work"}},
  "data": [
    {"smiles": "CC(=O)N[C@H]1CN2CC[C@H](O)[C@@H]2[C@@H](O)[C@@H]1O", "note": "[[1S-(1α,6β,7α,8β,8aβ)]-6-acetamidooctahydro-1,7,8-indolizinetriol]", "values": [
      {"measurement": "IC50 value for the inhibition of hexosaminidase from porcine placenta", "setting": "[1]", "value": 0.1, "unit": "µg/mL"},
      {"measurement": "IC50 value for the inhibition of hexosaminidase from human placenta", "setting": "[2]", "value": 0.1, "unit": "µg/mL"}
    ]},
    {"smiles": "CC(=O)NC1=CO[C@H](CO)[C@@H](O)[C@@H]1O", "note": "[2-acetamidoglucal]", "values": [
      {"measurement": "increase of life span", "setting": "[3]", "value": 63, "unit": "%"}
    ]}
  ]
}
